Source: patent US20100009395A1, “LUMINESCENCE ASSAY UTILIZING A GENETICALLY MODIFIED CELL LINE” (priority 2006, published 2010)
Entries after “also recorded” stand apart in the source; their conditions may differ.

Key:
Format in all cases: cell-based
[1] = tested on: I-kappa B-luciferase (IkB-Luc) fusion protein; assay: IkB-Luc degradation luciferase (luminescence imaging) assay in stably transfected HCT-116 cells; conditions: human urine sample two hours after ingestion of 8 g curcumin
Description: This construct has been transfected into HeLa and HCT-116 cells.
The substrate for luciferase, D-luciferin was also added to the cells at the same time, and the cells were incubated in extremely light-tight, low-background imaging chamber, at 37° C. Photon luminescence emitted from the cells is detected with a back-thinned CCD camera, designed for high-efficiency photon detection, particularly in the important red region of the spectrum.
The imaging assay cells were plated in a 24 well dish and allowed to grow for 24 hours; they were then treated with 10 ng/ml TNF-alpha, the substrate for luciferase, D-luciferin was also added at the same time, the cells were then incubated in a light-tight, low background imaging chamber, at 37° C.
Photon luminescence emitted from the cells was detected with a back-thinned CCD camera, designed for high-efficiency photon detection. The CCD is cooled and the electronic readout is optimized so that the data gathered extremely low noise.
HCT-116 cells stably expressing I-kB-Luc were incubated for 2 hours with increasing concentrations (0-1000 μl) control or post-curcumin ingested urine. Subsequently, some of the cells were treated with TNF-alpha. The level of I-kB degradation was determined by the luciferase assay. […] Similar experiments were conducted with black raspberry extracts.

COX-2 gene expression = assay: COX-2 expression in HCT-116 cells after induction with TNF-alpha, EGF or IL-1; conditions: 1 hour pre-incubation, then TNF-alpha, EGF or IL-1 for 1 hour
Description: Endogenous levels of COX-2 were determined following addition of the three botanical extracts. After incubating the HCT-116 cells with the different fractions for 1 hour, the cells were treated with TNF-alpha, EGF or IL-1 […] (all known inducers of COX-2 expression) for an additional 1 hour to induce high levels of COX-2 expression.

[2] = tested on: native I-kappa B and I-kappa B-luciferase (IkB-Luc); assay: Western blot of total cell lysates from TNF-alpha-treated HCT-116 cells; conditions: incubation with TNF-alpha
Description: In this experiment the degradation of I-kappa B was investigated. The I-kappa B was stably expressed as a fusion protein with the firefly luciferase in HCT-116 colon cancer cells. Presence of I-kappa B can then be monitored by luminescence activity. It was determined that the fusion protein is subject to similar levels of degradation in response to a stimulus such as tumor necrosis factor-alpha (TNF-alpha), a known inducer of phosphorylation and degradation of I-kappa B, as would be the case with the native of I-kappa B. Western blot analyses of total cell lysates from TNF-alpha-treated cells were subjected to western blot analyses. Both, native I-kappa B and I-kappa B-luciferase (IkB-Luc) levels were decreased within 20 minutes of incubation with TNF-alpha.

COc1cc(/C=C/C(=O)CC(=O)/C=C/c2ccc(O)c(OC)c2)ccc1O [curcumin]
protection of IkB-Luc from TNF-alpha-mediated degradation [1]: significant increase in the protection of the IkB-Luc from TNF-alpha-mediated degradation; also recorded: reduced the TNF degradation of I kappa B-Luc
protection of IkB-Luc from TNF-alpha-mediated degradation ([1]; listed as cucurmin): significantly inhibited the IkB-Luc degradation
COX-2 gene expression (COX-2 gene expression): inhibitor of COX-2 gene expression

TNF-alpha
time to decrease of native I-kappa B and IkB-Luc levels [2]: ≤ 20 min
